Assay results as given in ChEMBL document CHEMBL1201862, “PubChem BioAssay data set” (2004).
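A five-concentration, 48-hour dose response in 96-well plates underlies each endpoint, interpolated linearly between surrounding concentrations. At the GI50, growth is halved.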 Active and inactive are the calls of the source. Cut-off read from the data, not from the text of the source: active = GI50 up to about 1.1 µM and inactive = higher.

Legend:
Experiment in all cases: growth of human tumour cells (NCI), 48 h
T47D = tested on: T47D
MCF7 = tested on: MCF7
M19-MEL = tested on: M19-MEL
HOP-18 = tested on: HOP-18
SNB-78 = tested on: SNB-78
LXFL 529 = tested on: LXFL 529
KM-20L2 = tested on: KM-20L2
DLD-1 = tested on: DLD-1

SMILES | GI50 (T47D) | GI50 (MCF7) | GI50 (M19-MEL) | GI50 (HOP-18) | GI50 (SNB-78) | GI50 (LXFL 529) | GI50 (KM-20L2) | GI50 (DLD-1)
COc1ccc(/C=N/NC(=O)O)cc1 | > 100 µM (inactive) | > 100 µM (inactive) |  |  |  |  |  | 
C[C@H]1CC[C@@H]2[C@@H](C)[C@H]3[C@H](C[C@H]4[C@@H]5CC=C6C[C@@H](O)CC[C@]6(C)[C@H]5CC[C@]34C)N2C1 | 86.9 µM (inactive) | 38.5 µM (inactive) |  |  |  |  |  | 
COc1ccc2c(c1)[n+]([O-])c(C(=O)C/C(=N/NC(=O)c1ccccc1O)C(=O)Nc1ccc(Cl)c(C(F)(F)F)c1)c(C)[n+]2[O-] |  |  | 52.2 µM (inactive) | 32.6 µM (inactive) | > 100 µM (inactive) | 51.4 µM (inactive) | > 100 µM (inactive) | 37.4 µM (inactive)
Cc1ccc(CC(Cc2ccccc2C)C(=O)O)c(C(=O)O)c1 (configuration not stated) |  | > 100 µM (inactive) |  |  |  |  |  | 
O=C(O)c1ccccc1/C=N\N=C1NCCCCN1 | > 100 µM (inactive) | > 100 µM (inactive) |  |  |  |  |  | 
CCN(CC)CCC(=O)NC1c2ccccc2Oc2c(C)cccc21 (configuration not stated) |  |  | > 100 µM (inactive) |  | > 100 µM (inactive) | > 100 µM (inactive) |  | > 100 µM (inactive)
Cc1ccc(-c2c(C#N)c(S)n(NS(=O)(=O)c3ccc(C)cc3)c(=O)c2C#N)cc1 |  | 31.6 µM (inactive) |  |  |  |  |  | 
CC(C)(C)c1ccc(-c2nnc(-c3cc(C#N)cc(-c4nnc(-c5ccc(C(C)(C)C)cc5)o4)c3)o2)cc1 | > 100 µM (inactive) |  |  |  |  |  |  | 
CC#CC#C/C(=C/C=CC(=O)OC)SC | > 100 µM (inactive) | > 100 µM (inactive) |  |  |  |  |  | 
CS(=O)(=O)OCC1CCCCCCCCCCC12SCCCS2 (configuration not stated) | > 100 µM (inactive) | > 100 µM (inactive) |  |  |  |  |  | 
CN(C)CCCNC(=O)N/N=C\c1cccc2ccccc12 | > 10 µM (inactive) | > 10 µM (inactive) |  |  |  |  |  | 
C[s+]1c2ccccc2c2ccccc21 |  |  | > 100 µM (inactive) |  | > 100 µM (inactive) | > 100 µM (inactive) | > 100 µM (inactive) | 
O=C(O)C(/C=C/c1ccccc1)c1ccccc1 (configuration not stated) | > 100 µM (inactive) | > 100 µM (inactive) |  |  |  |  |  | 
O=[N+]([O-])c1c(O)c2nonc2c2nn(-c3ccccc3)nc12 | > 100 µM (inactive) | 20.5 µM (inactive) |  |  |  |  |  | 
N#CC(c1nc2ccccc2s1)c1nc(Cl)ncc1Br (configuration not stated) | 64.7 µM (inactive) |  |  |  |  |  |  | 
Cc1ccccc1NC(=O)C(=O)CC(=O)C1CCOC1=O (configuration not stated) |  |  | > 100 µM (inactive) | 7.29 µM (inactive) | > 100 µM (inactive) | > 100 µM (inactive) | > 100 µM (inactive) | > 100 µM (inactive)

SMILES | GI50 (T47D) | GI50 (MCF7) | GI50 (M19-MEL) | GI50 (HOP-18) | GI50 (SNB-78) | GI50 (LXFL 529) | GI50 (KM-20L2) | GI50 (DLD-1)
Nn1c(S)nnc1C12CC3CC(CC(C3)C1)C2 | > 100 µM (inactive) |  |  |  |  |  |  | 
OC(c1cc(C23CC4CC(CC(C4)C2)C3)nc2c(Cl)cc(Cl)cc12)C1CCCCN1 (configuration not stated) | 1.79 µM (inactive) | 1.6 µM (inactive) |  |  |  |  |  | 
O=C1OC2C(O)COC2(O)C1(O)Cc1c[nH]c2ccccc12 (configuration not stated) |  |  | > 100 µM (inactive) | > 100 µM (inactive) | > 100 µM (inactive) | > 100 µM (inactive) | > 100 µM (inactive) | > 100 µM (inactive)
CC1CC(=O)Nc2ccccc2N1C(=O)C1CC1 (configuration not stated) | > 100 µM (inactive) | > 100 µM (inactive) |  |  |  |  |  | 
CC1(C)O[C@@H](CCl)C[C@H](C#N)O1 |  |  | > 100 µM (inactive) | > 100 µM (inactive) | > 100 µM (inactive) |  | > 100 µM (inactive) | > 100 µM (inactive)
Nc1n[nH]c(Nc2ccc(Cl)cc2)c1P(=O)(c1ccccc1)c1ccccc1 | 58.7 µM (inactive) | 29 µM (inactive) |  |  |  |  |  | 
O=C(Nc1ccccc1)N1CCN(C(=O)Nc2ccccc2)C1=S | 40.9 µM (inactive) |  |  |  |  |  |  | 
Cc1nc(Cl)c2sc(=S)n(-c3ccc(F)cc3)c2n1 |  | 2.84 µM (inactive) |  |  |  |  |  | 
O=C(NCCCNCCCCNCCCNC(=O)c1cc(-c2ccccc2)nc2ccccc12)c1cc(-c2ccccc2)nc2ccccc12 | 2.63 µM (inactive) | 2.1 µM (inactive) |  |  |  |  |  | 
Cc1c(-c2ccccc2)c(C#N)c2nnn(-c3cccc(Cl)c3)c(=O)n12 | 60.5 µM (inactive) | 43.9 µM (inactive) |  |  |  |  |  | 
CCN(CC)CC1CCCCN1CC(=O)N1c2cc(Cl)ccc2NC(=O)CC1C (configuration not stated) |  |  | > 100 µM (inactive) |  | > 100 µM (inactive) | > 100 µM (inactive) | > 100 µM (inactive) | > 100 µM (inactive)
CC1=NOC(=O)/C1=C/c1cccc2ccccc12 |  |  | > 100 µM (inactive) | > 100 µM (inactive) | > 100 µM (inactive) | > 100 µM (inactive) | > 100 µM (inactive) | > 100 µM (inactive)
CON(C)C(=O)C(C)N(Cc1ccccc1)Cc1ccccc1 (configuration not stated) |  | 58.3 µM (inactive) |  |  |  |  |  | 
Nc1nc(SCCC/C=C/I)nc2c1ncn2C1OC(COP(=O)(O)O)C(O)C1O (configuration not stated) |  |  | > 100 µM (inactive) |  | > 100 µM (inactive) | > 100 µM (inactive) | > 100 µM (inactive) | > 100 µM (inactive)
COC(=O)c1nc(NN)cc(O)c1CCCCCc1c(O)nc(NN)nc1C(=O)OC |  |  | > 100 µM (inactive) | > 100 µM (inactive) | > 100 µM (inactive) | > 100 µM (inactive) | > 100 µM (inactive) | > 100 µM (inactive)
